Measured values from PubChem BioAssay (NCI).
Several values for one entry are separate records, joined by “and”; a condition that tells them apart may be missing. Equal entries are not always repeated.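 Where inhibition never reached the appropriate level, the endpoint shown equals the highest concentration tested. Otherwise, values were interpolated linearly from a five-concentration, 48-hour dose response in 96-well plates. At the GI50, growth is halved. The concentration for full growth arrest is given as TGI.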

Legend:
Assay in all cases: NCI tumour cell line growth inhibition, 48 h
SNB-19 CNS = tested on: SNB-19 CNS
SK-MEL-5 melanoma = tested on: SK-MEL-5 melanoma
SK-MEL-2 melanoma = tested on: SK-MEL-2 melanoma
UO-31 renal = tested on: UO-31 renal
OVCAR-3 ovarian = tested on: OVCAR-3 ovarian
HOP-62 NSCLC = tested on: HOP-62 NSCLC
K-562 leukemia = tested on: K-562 leukemia
KM12 colon = tested on: KM12 colon
NCI-H226 lung = tested on: NCI-H226 lung
HCT-15 colon = tested on: HCT-15 colon
PC-3 prostate = tested on: PC-3 prostate
OVCAR-8 ovarian = tested on: OVCAR-8 ovarian
UACC-257 melanoma = tested on: UACC-257 melanoma

NC(=O)c1ccc(S(=O)(=NS(=O)(=O)c2ccccc2)c2ccc(C(N)=O)cc2)cc1
> 100 µM: TGI (SNB-19 CNS) | TGI (SK-MEL-5 melanoma) | TGI (SK-MEL-2 melanoma) | TGI (UO-31 renal) | TGI (OVCAR-3 ovarian) | TGI (HOP-62 NSCLC) | TGI (K-562 leukemia) | TGI (KM12 colon) | TGI (NCI-H226 lung) | TGI (HCT-15 colon) | TGI (PC-3 prostate) | TGI (OVCAR-8 ovarian) | TGI (UACC-257 melanoma)

CCN(CC)CCC1(C(=O)OC)SCCc2ccc(C)cc21 (stereo unspecified)
> 100 µM: TGI (SNB-19 CNS) | TGI (SK-MEL-5 melanoma) | TGI (SK-MEL-2 melanoma) | TGI (UO-31 renal) | TGI (OVCAR-3 ovarian) | TGI (HOP-62 NSCLC) | TGI (K-562 leukemia) | TGI (KM12 colon) | TGI (NCI-H226 lung) | TGI (HCT-15 colon) | TGI (PC-3 prostate) | TGI (OVCAR-8 ovarian) | TGI (UACC-257 melanoma)

Cc1cc(C)c(N)c(CO)c1
1.73 µM and 4.56 µM: TGI (NCI-H226 lung)
0.236 µM and 1.26 µM: GI50 (NCI-H226 lung)
> 100 µM: TGI (SNB-19 CNS) | TGI (SK-MEL-5 melanoma) | TGI (SK-MEL-2 melanoma) | TGI (UO-31 renal) | TGI (OVCAR-3 ovarian) | TGI (HOP-62 NSCLC) | TGI (K-562 leukemia) | TGI (KM12 colon) | TGI (HCT-15 colon) | TGI (PC-3 prostate) | TGI (OVCAR-8 ovarian) | TGI (UACC-257 melanoma)

CC(=O)N1C(=O)/C(=C\C(=O)c2ccc(Cl)cc2)c2ccccc21
44.5 µM: TGI (NCI-H226 lung)
23.4 µM: TGI (HCT-15 colon)
30.6 µM: TGI (OVCAR-3 ovarian)
38.9 µM: TGI (SK-MEL-2 melanoma)
33.7 µM: TGI (OVCAR-8 ovarian)
29.6 µM: TGI (UO-31 renal)
30.7 µM: TGI (UACC-257 melanoma)
> 100 µM: TGI (K-562 leukemia)
19.6 µM: TGI (PC-3 prostate)
39.8 µM: TGI (SK-MEL-5 melanoma)
35.3 µM: TGI (KM12 colon)
41.2 µM: TGI (HOP-62 NSCLC)
> 57.2 µM: TGI (SNB-19 CNS)

C[S+](C)C1(c2ccccc2)C(=O)c2ccccc2C1=O
> 53.5 µM: TGI (SK-MEL-5 melanoma)
> 100 µM: TGI (SNB-19 CNS) | TGI (OVCAR-3 ovarian) | TGI (HOP-62 NSCLC) | TGI (K-562 leukemia) | TGI (KM12 colon) | TGI (NCI-H226 lung) | TGI (HCT-15 colon) | TGI (PC-3 prostate) | TGI (OVCAR-8 ovarian) | TGI (UACC-257 melanoma)
> 56.5 µM: TGI (UO-31 renal)
> 73.2 µM: TGI (SK-MEL-2 melanoma)
